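Cells were grown in 96-well plates and exposed to each compound for 48 hours at five concentrations; endpoints were interpolated linearly between bracketing concentrations, or set to the highest concentration if not reached. GI50 = concentration required for 50% inhibition of growth.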 Calls of active or inactive are those of the source. Cut-off read from the data, not from the text of the source: active = GI50 up to about 1.1 µM and inactive = higher.
Experiments:
Assay in all cases: inhibition of tumour cell growth, NCI panel, 48 h
SNB-75 = tested on: SNB-75
SK-MEL-5 = tested on: SK-MEL-5
MCF7 = tested on: MCF7
HT-29 = tested on: HT-29
MDA-N = tested on: MDA-N
CAKI-1 = tested on: CAKI-1
HCT-116 = tested on: HCT-116
NCI-H23 = tested on: NCI-H23
PC-3 = tested on: PC-3
SK-MEL-28 = tested on: SK-MEL-28
NCI-H522 = tested on: NCI-H522
K562 = tested on: K562
U-251 = tested on: U-251
ACHN = tested on: ACHN
SW-620 = tested on: SW-620
BT-549 = tested on: BT-549
IGROV-1 = tested on: IGROV-1
HCT-15 = tested on: HCT-15
HCC 2998 = tested on: HCC 2998
CCRF-CEM = tested on: CCRF-CEM

| Compound | GI50 (SNB-75) | GI50 (SK-MEL-5) | GI50 (MCF7) | GI50 (HT-29) | GI50 (MDA-N) | GI50 (CAKI-1) | GI50 (HCT-116) | GI50 (NCI-H23) | GI50 (PC-3) | GI50 (SK-MEL-28) | GI50 (NCI-H522) | GI50 (K562) | GI50 (U-251) | GI50 (ACHN) | GI50 (SW-620) | GI50 (BT-549) | GI50 (IGROV-1) | GI50 (HCT-15) [µM] | GI50 (HCC 2998) | GI50 (CCRF-CEM) |
| --- | --- | --- | --- | --- | --- | --- | --- | --- | --- | --- | --- | --- | --- | --- | --- | --- | --- | --- | --- | --- |
| O=S(=O)(O)n1ccnc1 | > 100 µM (inactive) | > 100 µM (inactive) | > 100 µM (inactive) | > 100 µM (inactive) | > 100 µM (inactive) | > 100 µM (inactive) | > 100 µM (inactive) | > 100 µM (inactive) | > 100 µM (inactive) | > 100 µM (inactive) | > 100 µM (inactive) | > 100 µM (inactive) | > 100 µM (inactive) | > 100 µM (inactive) | > 100 µM (inactive) | > 100 µM (inactive) | > 100 µM (inactive) | > 100 |  |  |
| CC1CCOc2ccc(cc2)/C=N\c2ccc(cc2)-c2ccc(cc2)/N=C\c2ccc(cc2)OCC1 |  | > 100 µM (inactive) | > 100 µM (inactive) | > 100 µM (inactive) | > 100 µM (inactive) | > 100 µM (inactive) | > 100 µM (inactive) | > 100 µM (inactive) | > 100 µM (inactive) | > 100 µM (inactive) | > 100 µM (inactive) | > 100 µM (inactive) | > 100 µM (inactive) | > 100 µM (inactive) | > 100 µM (inactive) | > 100 µM (inactive) | > 100 µM (inactive) | > 100 | > 100 µM (inactive) | > 100 µM (inactive) |
| CCN(CC)CC1CCCCN1CC(=O)N1c2ccccc2NC(=O)CC1C (configuration not stated) |  | > 100 µM (inactive) | > 100 µM (inactive) | > 100 µM (inactive) | > 100 µM (inactive) | > 100 µM (inactive) | > 100 µM (inactive) | > 100 µM (inactive) | > 100 µM (inactive) | > 100 µM (inactive) | > 100 µM (inactive) | > 100 µM (inactive) | > 100 µM (inactive) | > 100 µM (inactive) | > 100 µM (inactive) | > 100 µM (inactive) | > 100 µM (inactive) | > 100 | > 100 µM (inactive) | > 100 µM (inactive) |
| CC1C2(C)OC(=N)C(C#N)(C(c3ccco3)O2)C1(C#N)C#N (configuration not stated) | 97.3 µM (inactive) | 14.9 µM (inactive) | 22.4 µM (inactive) | 32.8 µM (inactive) | 19.8 µM (inactive) | 14.4 µM (inactive) | 26.7 µM (inactive) | 29.9 µM (inactive) | 36.6 µM (inactive) | 18.4 µM (inactive) |  | 34.9 µM (inactive) | 24.4 µM (inactive) | 36.6 µM (inactive) | 16.4 µM (inactive) | 35.2 µM (inactive) | 58.9 µM (inactive) | 12.5 | 26.9 µM (inactive) | 23.6 µM (inactive) |
| COc1ccccc1-c1nc(-c2ccccc2O)n[nH]1 | > 100 µM (inactive) | > 100 µM (inactive) | > 100 µM (inactive) | > 100 µM (inactive) | > 100 µM (inactive) | > 100 µM (inactive) | > 100 µM (inactive) | > 100 µM (inactive) | > 100 µM (inactive) | > 100 µM (inactive) |  | > 100 µM (inactive) | > 100 µM (inactive) | > 100 µM (inactive) | > 100 µM (inactive) | > 100 µM (inactive) |  | 45.9 | > 100 µM (inactive) | > 100 µM (inactive) |
| CC12CC1C(c1cccc([N+](=O)[O-])c1)(c1cccc([N+](=O)[O-])c1)N=N2 (configuration not stated) | 24.6 µM (inactive) | 26.8 µM (inactive) | 35.6 µM (inactive) | 28 µM (inactive) | 23.2 µM (inactive) |  | 15.8 µM (inactive) | 19.1 µM (inactive) | 25 µM (inactive) | 22.1 µM (inactive) | 6.7 µM (inactive) | 29.9 µM (inactive) | 18.7 µM (inactive) | 15.8 µM (inactive) | 23.2 µM (inactive) | 18.5 µM (inactive) | 20.3 µM (inactive) | 20.4 | 34.5 µM (inactive) | 3.36 µM (inactive) |
| Cc1ccc(S(=O)(=O)Nn2c(-c3ccccc3)c(C#N)c(-c3ccc(Cl)cc3)c(C#N)c2=O)cc1 |  | 15.2 µM (inactive) | 19.4 µM (inactive) |  | 28.4 µM (inactive) | 55.7 µM (inactive) | 18.9 µM (inactive) |  | 26.2 µM (inactive) | 24.4 µM (inactive) |  | 33.7 µM (inactive) | 21.5 µM (inactive) | 22 µM (inactive) | 30.4 µM (inactive) | 18.5 µM (inactive) |  | 26.9 | 23.7 µM (inactive) | 20.4 µM (inactive) |
| [N-]=[N+]=CC(=O)OC1CCc2ccccc21 (configuration not stated) |  | 85.1 µM (inactive) | 71.1 µM (inactive) | > 100 µM (inactive) | > 100 µM (inactive) | 26 µM (inactive) | > 100 µM (inactive) | 82.8 µM (inactive) | > 100 µM (inactive) | > 100 µM (inactive) | > 100 µM (inactive) | > 100 µM (inactive) | > 100 µM (inactive) | 9.95 µM (inactive) | > 100 µM (inactive) | > 100 µM (inactive) | > 100 µM (inactive) | > 100 | > 100 µM (inactive) | > 10 µM (inactive) |
| Cc1ccc(-n2nncc2[Si](C)(C)C)s1 |  | > 100 µM (inactive) | > 100 µM (inactive) | > 100 µM (inactive) | > 100 µM (inactive) | > 100 µM (inactive) | > 100 µM (inactive) | > 100 µM (inactive) | > 100 µM (inactive) | > 100 µM (inactive) | > 100 µM (inactive) | > 100 µM (inactive) | > 100 µM (inactive) | > 100 µM (inactive) | > 100 µM (inactive) | > 100 µM (inactive) |  | > 100 | > 100 µM (inactive) | 22.6 µM (inactive) |
| CCCCCCCCCCCCCCCC(=O)OCC1CCCN2CCCCC12 (configuration not stated) | > 100 µM (inactive) | > 100 µM (inactive) | > 100 µM (inactive) | > 100 µM (inactive) | > 100 µM (inactive) | > 100 µM (inactive) | > 100 µM (inactive) | > 100 µM (inactive) | > 100 µM (inactive) | > 100 µM (inactive) |  | > 100 µM (inactive) | > 100 µM (inactive) | > 100 µM (inactive) | > 100 µM (inactive) | > 100 µM (inactive) |  | > 100 | > 100 µM (inactive) | > 100 µM (inactive) |
| CC(C)=CCC/C(C)=C/CCC1(C)C2COC(=O)C21 (configuration not stated) |  | 20.7 µM (inactive) | 34.8 µM (inactive) | 70.8 µM (inactive) | 54.7 µM (inactive) | > 100 µM (inactive) | 31.9 µM (inactive) | 51.3 µM (inactive) | 44.4 µM (inactive) | 29 µM (inactive) | 53.2 µM (inactive) | 22.6 µM (inactive) | 66.2 µM (inactive) | > 100 µM (inactive) | 19.3 µM (inactive) | 49.8 µM (inactive) | > 100 µM (inactive) | 57.4 | > 100 µM (inactive) | 26.9 µM (inactive) |
| Cc1c(C(=O)O)c2cc3ccccc3cc2c(=O)n1C | > 10 µM (inactive) |  | > 10 µM (inactive) | > 10 µM (inactive) | > 10 µM (inactive) |  |  | > 10 µM (inactive) | > 10 µM (inactive) |  | > 10 µM (inactive) |  | > 10 µM (inactive) | > 10 µM (inactive) | > 10 µM (inactive) | > 10 µM (inactive) | > 10 µM (inactive) | > 10 | > 10 µM (inactive) |  |
| COc1cc(COC(=O)N(C)[C@@H](Cc2ccccc2)C(=O)O)c([N+](=O)[O-])cc1OC | > 100 µM (inactive) | > 100 µM (inactive) | > 100 µM (inactive) | > 100 µM (inactive) | > 100 µM (inactive) |  | > 100 µM (inactive) | > 100 µM (inactive) | > 100 µM (inactive) |  |  | > 100 µM (inactive) | > 100 µM (inactive) | > 100 µM (inactive) | > 100 µM (inactive) | > 100 µM (inactive) | > 100 µM (inactive) | > 100 | > 100 µM (inactive) | > 100 µM (inactive) |
| O=C(/C=C/c1ccc(OCc2ccccc2)cc1)NCc1ccc(C(=O)NCCc2c[nH]c3ccccc23)cc1 | 8.3 µM (inactive) | 17.8 µM (inactive) | 17.1 µM (inactive) | 4.33 µM (inactive) | > 100 µM (inactive) | 9.18 µM (inactive) | 15.4 µM (inactive) | 14.9 µM (inactive) | 12 µM (inactive) | 74.5 µM (inactive) |  | 44.4 µM (inactive) | 4.37 µM (inactive) | 36.5 µM (inactive) | > 65.2 µM (inactive) | 66.1 µM (inactive) | 15.9 µM (inactive) | > 94 | 43.2 µM (inactive) | 70.6 µM (inactive) |
| COC(=O)CCC(C)[C@H]1CCC2C3C(C[C@H](OC(C)=O)[C@@]21C)[C@@]1(C)CCC2(C[C@H]1C[C@H]3OC(C)=O)OOC1(CCCCCCC1)OO2 (some centres not stated) | 6.35 µM (inactive) | 6.5 µM (inactive) | 6.64 µM (inactive) | 9.08 µM (inactive) | > 100 µM (inactive) | 2.55 µM (inactive) | 2.74 µM (inactive) | 6.55 µM (inactive) | 3.4 µM (inactive) | > 100 µM (inactive) | 10.9 µM (inactive) | 4.67 µM (inactive) | 5.86 µM (inactive) | 4.09 µM (inactive) | 6.3 µM (inactive) | 9.14 µM (inactive) | 6.37 µM (inactive) | 5.52 |  | 4.97 µM (inactive) |
| CCC(CCCN)Nc1cc(OC)cc2c(C)ccnc12 (configuration not stated) | 12.7 µM (inactive) | 17.8 µM (inactive) | 15 µM (inactive) | 14.3 µM (inactive) | 17.5 µM (inactive) | 15.5 µM (inactive) | 15.9 µM (inactive) |  | 11.6 µM (inactive) | 16.9 µM (inactive) |  | 15 µM (inactive) |  | 18.3 µM (inactive) | 20.8 µM (inactive) | 14.9 µM (inactive) | 16.8 µM (inactive) | 22.9 | 18.8 µM (inactive) | 18.4 µM (inactive) |

Source: ChEMBL document CHEMBL1201862, “PubChem BioAssay data set” (2004)
